This experiment has as its target T1, recombinant human 11 β-HSD1 (Homo sapiens, UniProt P28845).
T1 construct: made in house; host or cells: E. coli
Put plainly: 11 β-HSD1 SPA Assay (Scintillation Proximity Assay). The format is biochemical. The method in brief:
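E. coli-expressed human enzyme (30-100 nM) with tritiated cortisone 40 nM and NADPH 1 mM in HEPES buffer pH7.4, 2 hours at room temperature. Stopped with protein A SPA beads carrying anti-cortisol antibody and glycyrrhetinic acid; counted after overnight incubation. IC50 from percent inhibition between no-enzyme and no-compound signals.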
On the technique in general: SPA uses beads or plates that emit light when radiolabelled molecules are held near them.
T1 sequence (P28845 whole entry): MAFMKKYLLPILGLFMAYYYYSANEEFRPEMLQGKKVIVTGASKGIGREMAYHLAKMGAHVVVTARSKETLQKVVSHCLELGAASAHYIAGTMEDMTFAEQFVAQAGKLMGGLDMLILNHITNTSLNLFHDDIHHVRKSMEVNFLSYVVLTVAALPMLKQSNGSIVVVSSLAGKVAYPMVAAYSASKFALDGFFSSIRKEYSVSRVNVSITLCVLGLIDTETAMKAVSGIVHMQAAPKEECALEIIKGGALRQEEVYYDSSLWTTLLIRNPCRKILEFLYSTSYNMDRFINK
As usually defined, the IC50 is the midpoint of a concentration-inhibition curve. For `CN1CCN(CCOc2cc(OC(C)(C)C(=O)N[C@H]3C[C@H]4CC[C@@H](C3)N4c3ccc(C(=O)NCC(F)(F)F)cn3)c(Cl)cc2Cl)CC1` [Example 406, 6-(3-endo-(2-(2,4-dichloro-5-(2-(4-methylpiperazin-1-yl)ethoxy)phenoxy)-2-methylpropanamido)-8-azabicyclo[3.2.1]octan-8-yl)-N-(2,2,2-trifluoroethyl)nicotinamide], the IC50 is less than 200 nM.
With `COCCNC(=O)c1ccc(N2[C@@H]3CC[C@H]2C[C@@H](NC(=O)C(C)Oc2ccc(Cl)cc2)C3)nc1` (stereo partly drawn) [Example 67, 6-[3-endo-({2-[(4-chlorophenyl)oxy]propanoyl}amino)-8-azabicyclo[3.2.1]oct-8-yl]-N-[2-(methyloxy)ethyl]pyridine-3-carboxamide], the IC50 is less than 10000 nM.
Take `CC(C)(Oc1ccc(F)cc1Cl)C(=O)N[C@H]1C[C@H]2CC[C@@H](C1)N2c1ncc(C(=O)NCC(F)(F)F)cc1F` [Example 159, 6-[3-endo-({2-[(2-chloro-4-fluorophenyl)oxy]-2-methylpropanoyl}amino)-8-azabicyclo[3.2.1]oct-8-yl]-5-fluoro-N-(2,2,2-trifluoroethyl)pyridine-3-carboxamide]: the half-inhibitory concentration (IC50) is less than 200 nM.
On to `CC(C)(Oc1ccc(F)cc1)C(=O)N[C@H]1C[C@H]2CC[C@@H](C1)N2c1ccc(S(C)(=O)=O)cn1` [Example 230, 2-[(4-fluorophenyl)oxy]-2-methyl-N-{8-[5-(methylsulfonyl)pyridin-2-yl]-8-azabicyclo[3.2.1]oct-3-endo-yl}propanamide], for which the IC50 was less than 2000 nM.
In the case of `CC(C)(Oc1ncc(Cl)cc1C(F)(F)F)C(=O)N[C@H]1C[C@H]2CC[C@@H](C1)N2c1ccc(S(C)(=O)=O)cn1` [Example 314, 2-{[5-chloro-3-(trifluoromethyl)pyridin-2-yl]oxy}-2-methyl-N-{8-[5-(methylsulfonyl)pyridin-2-yl]-8-azabicyclo[3.2.1]oct-3-endo-yl}propanamide], the IC50 was less than 200 nM.
Turning to `CC(C)(Oc1ccccc1C(F)(F)F)C(=O)N[C@H]1C[C@H]2CC[C@@H](C1)N2c1ccc(S(C)(=O)=O)cn1` [Example 255, 2-methyl-N-{8-[5-(methylsulfonyl)pyridin-2-yl]-8-azabicyclo[3.2.1]oct-3-endo-yl}-2-{[2-(trifluoromethyl)phenyl]oxy}propanamide], the IC50 was less than 200 nM.
The result for `CC(C)(C(=O)N[C@H]1C[C@H]2CC[C@@H](C1)N2c1ccc(C(=O)NC2CC2)cn1)c1ccccc1` [Example 21, N-cyclopropyl-6-{3-endo-[(2-methyl-2-phenylpropanoyl)amino]-8-azabicyclo[3.2.1]oct-8-yl}pyridine-3-carboxamide] reads less than 200 nM; that for `CC(C)(Oc1ccc(Cl)cc1CCO)C(=O)N[C@H]1C[C@H]2CC[C@@H](C1)N2c1ccc(C(=O)NCC(F)(F)F)cn1` [Example 383, 6-[3-endo-({2-[4-chloro-2-(2-hydroxyethyl)phenoxy]-2-methylpropanoyl}amino)-8-azabicyclo[3.2.1]oct-8-yl]-N-(2,2,2-trifluoroethyl)pyridine-3-carboxamide], less than 200 nM; that for `CC(C)(Oc1ccc(F)cc1)C(=O)N[C@H]1C[C@H]2CC[C@@H](C1)N2c1ccc(S(N)(=O)=O)cn1` [Example 264, N-{8-[5-(aminosulfonyl)pyridin-2-yl]-8-azabicyclo[3.2.1]oct-3-endo-yl}-2-[(4-fluorophenyl)oxy]-2-methylpropanamide], less than 200 nM.
As to `CC(C)(Oc1ccc(Cl)cc1Cl)C(=O)N[C@H]1C[C@H]2CC[C@@H](C1)N2c1ccc(NC(=O)CC(F)(F)F)cc1` [Example 133, N-{4-[3-endo-({2-[(2,4-dichlorophenyl)oxy]-2-methylpropanoyl}amino)-8-azabicyclo[3.2.1]oct-8-yl]phenyl}-3,3,3-trifluoropropanamide], the concentration for half-maximal inhibition (IC50) was less than 200 nM.
For `CC(C)(Oc1ccccc1C(F)(F)F)C(=O)N[C@H]1C[C@H]2CC[C@@H](C1)N2c1ccc(S(C)(=O)=O)cc1` [Example 257, 2-methyl-N-{8-[4-(methylsulfonyl)phenyl]-8-azabicyclo[3.2.1]oct-3-endo-yl}-2-{[2-(trifluoromethyl)phenyl]oxy}propanamide], the IC50 was less than 200 nM.
Regarding `CC(C)(Oc1ncc(C(F)(F)F)cc1Cl)C(=O)N[C@H]1C[C@H]2CC[C@@H](C1)N2c1ccc(S(C)(=O)=O)cn1` [Example 248, 2-{[3-chloro-5-(trifluoromethyl)pyridin-2-yl]oxy}-2-methyl-N-{8-[5-(methylsulfonyl)pyridin-2-yl]-8-azabicyclo[3.2.1]oct-3-endo-yl}propanamide], the IC50 is less than 2000 nM.
As to `CC(C)(Oc1ccccc1OC(F)(F)F)C(=O)N[C@H]1C[C@H]2CC[C@@H](C1)N2c1ccc(C(=O)NCC(F)(F)F)cn1` [Example 347, 6-[3-endo-({2-methyl-2-[2-(trifluoromethoxy)phenoxy]propanoyl}amino)-8-azabicyclo[3.2.1]oct-8-yl]-N-(2,2,2-trifluoroethyl)pyridine-3-carboxamide], the IC50 was less than 200 nM.
Turning to `CC(C)(Oc1ccc(F)cc1Cl)C(=O)N[C@H]1C[C@H]2CC[C@@H](C1)N2c1ccc(C(=O)NC2CC2)cn1` [Example 265, 6-[3-endo-({2-[(2-chloro-4-fluorophenyl)oxy]-2-methylpropanoyl}amino)-8-azabicyclo[3.2.1]oct-8-yl]-N-cyclopropylpyridine-3-carboxamide], the IC50 was less than 200 nM.
For the compound `O=C(NC1CC1)c1ccc(N2[C@@H]3CC[C@H]2C[C@@H](NC(=O)C2(c4ccc(Cl)cc4)CC2)C3)c(Cl)c1` [Example 118, 3-chloro-4-[3-endo-({[1-(4-chlorophenyl)cyclopropyl]carbonyl}amino)-8-azabicyclo[3.2.1]oct-8-yl]-N-cyclopropylbenzamide], the concentration for half-maximal inhibition (IC50) is less than 200 nM.
The result for `CC(C)(Oc1cc(Cl)c(F)cc1Cl)C(=O)N[C@H]1C[C@H]2CC[C@@H](C1)N2c1ccc(S(C)(=O)=O)cn1` [Example 154, 2-[(2,5-dichloro-4-fluorophenyl)oxy]-2-methyl-N-{8-[5-(methylsulfonyl)pyridin-2-yl]-8-azabicyclo[3.2.1]oct-3-endo-yl}propanamide] reads less than 200 nM.
On to `CC(C)(Oc1ccc(F)cc1C(F)(F)F)C(=O)NC1CC2CCC(C1)N2c1ccc(C(=O)NC2CC2(F)F)cn1` (stereo not drawn) [Example 369, N-(2,2-difluorocyclopropyl)-6-[3-endo-({2-[4-fluoro-2-(trifluoromethyl)phenoxy]-2-methylpropanoyl}amino)-8-azabicyclo[3.2.1]oct-8-yl]pyridine-3-carboxamide], for which the IC50 is less than 200 nM.
As for `CC(=O)Nc1ccc(N2[C@@H]3CC[C@H]2C[C@@H](NC(=O)C(C)(C)Oc2ccc(Cl)cc2Cl)C3)cc1` [Example 115, N-{8-[4-(acetylamino)phenyl]-8-azabicyclo[3.2.1]oct-3-endo-yl}-2-[(2,4-dichlorophenyl)oxy]-2-methylpropanamide], the IC50 was less than 200 nM.
As for `CC(C)(Oc1ccc(F)c(C(F)(F)F)c1)C(=O)N[C@H]1C[C@H]2CC[C@@H](C1)N2c1ccc(C(=O)NCC(F)(F)F)cn1` [Example 188, 6-{3-endo-[(2-{[4-fluoro-3-(trifluoromethyl)phenyl]oxy}-2-methylpropanoyl)amino]-8-azabicyclo[3.2.1]oct-8-yl}-N-(2,2,2-trifluoroethyl)pyridine-3-carboxamide], the IC50 is less than 200 nM.
